This is an account of results in US10723711B2, “1,1,1-trifluoro-3-hydroxypropan-2-yl carbamate derivatives and 1,1,1-trifluoro-4-hydroxybutan-2-yl carbamate derivatives as MAGL inhibitors” (PFIZER INC., priority 2015, dated 2020).

Holding throughout (format): biochemical
The target in assay [1] is T1, human recombinant Monoacylglycerol Lipase (Homo sapiens, UniProt Q99685).
T1 sequence (Q99685 1-303): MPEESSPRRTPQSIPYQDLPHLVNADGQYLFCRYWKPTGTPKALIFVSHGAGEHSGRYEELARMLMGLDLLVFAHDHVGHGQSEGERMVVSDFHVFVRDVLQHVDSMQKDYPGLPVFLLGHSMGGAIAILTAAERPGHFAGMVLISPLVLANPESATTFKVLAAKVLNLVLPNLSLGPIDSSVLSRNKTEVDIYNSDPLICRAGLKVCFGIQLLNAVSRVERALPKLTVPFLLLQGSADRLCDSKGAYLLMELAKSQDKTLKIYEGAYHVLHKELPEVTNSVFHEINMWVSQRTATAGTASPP
Put plainly: MAGL inactivation, enzyme progress curves, kinact/KI. Particulars: from enzyme progress curves, T = 0 min protocol; geometric mean of 2-4 determinations unless otherwise indicated. The essentials:
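Human recombinant MAGL ([…]) with compound, 7-HCA substrate (final 5 μM) added immediately (T=0 min), in pH 7.4 HEPES buffer with 0.1% Triton X-100 and 25% glycerin. Fluorescence (Ex/Em 340/465) was read every minute over 60 min, giving progress curves at decreasing compound concentrations (final 3 μM to 0.03 nM).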

For assay [2], the target named is T1, human recombinant Monoacylglycerol Lipase. Put plainly: MAGL inhibition enzymatic assay, fluorogenic substrate 7-HCA, IC50 at T=0 min or after 30 minute incubation (T=30 min). The settings on record: geometric mean of 2-4 determinations unless otherwise indicated. Here is the method:
An equal volume of 7-HCA in assay buffer with 10% DMSO was added either immediately (T=0 min) or after a 30 minute incubation (T=30 min) to initiate the reaction. […] After these dilutions, the final concentration of the test compound ranged from 3 μM to 0.03 nM. […] IC50 values were generated based on a four parameter fit model using ABASE software from IDBS.

Another assay deals with T2, human recombinant FAAH (Homo sapiens, UniProt O00519).
T2 construct: purchased Cayman 10010183
T2 sequence (O00519 1-579): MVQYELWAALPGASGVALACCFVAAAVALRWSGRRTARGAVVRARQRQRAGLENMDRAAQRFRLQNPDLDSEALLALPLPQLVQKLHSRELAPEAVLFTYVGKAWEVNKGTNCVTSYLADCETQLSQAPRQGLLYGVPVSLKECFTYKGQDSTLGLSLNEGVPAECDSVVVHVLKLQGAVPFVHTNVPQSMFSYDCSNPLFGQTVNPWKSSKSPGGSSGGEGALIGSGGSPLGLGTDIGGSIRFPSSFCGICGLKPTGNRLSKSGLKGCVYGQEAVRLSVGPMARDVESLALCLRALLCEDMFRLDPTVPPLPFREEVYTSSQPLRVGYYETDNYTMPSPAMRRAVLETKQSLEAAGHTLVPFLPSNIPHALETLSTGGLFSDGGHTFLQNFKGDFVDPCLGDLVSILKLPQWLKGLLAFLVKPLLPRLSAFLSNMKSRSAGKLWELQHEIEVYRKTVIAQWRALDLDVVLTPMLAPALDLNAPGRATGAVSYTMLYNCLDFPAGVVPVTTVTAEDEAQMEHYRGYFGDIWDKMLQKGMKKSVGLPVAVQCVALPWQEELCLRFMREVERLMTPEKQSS
Put plainly: FAAH inhibition enzymatic assay, fluorescent substrate Arachidonoyl-AMC, 30 minute incubation. Particulars: T = 30 min (30 minute incubation); geometric mean of 2-4 determinations unless otherwise indicated.

Where [3] appears, read: T = 0 min (substrate added immediately), read-out: MAGL (T = 0 min) IC50.
Setting [4] is: T = 30 min (30 minute incubation), read-out: MAGL (T = 30 min) IC50.

Read-outs that look alike come from different tables or passages of the source. Bounds are passed on as bounds.

The IC50 is the point on the concentration scale where inhibition reaches its midpoint.

For `CN(C(=O)c1ccccc1)C1COC2(CCN(C(=O)O[C@H](CO)C(F)(F)F)CC2)C1` (single isomer, unassigned) [Example 100], the “MAGL kinact/KI” value in assay [1] is recorded as 5664 1/s per M. Besides, the IC50 in assay [2] (setting [3]) was 86 nM; in assay [2] (setting [4]) it was 10 nM; at human recombinant FAAH, above 28700 nM.
Take `CN([C@H]1COC2(CCN(C(=O)O[C@H](CO)C(F)(F)F)CC2)C1)S(=O)(=O)CC1CC1` [Example 106, (2R)-1,1,1-Trifluoro-3-hydroxypropan-2-yl (3R)-3-{[(cyclopropylmethyl)sulfonyl](methyl)amino}-1-oxa-8-azaspiro[4.5]decane-8-carboxylate]: in assay [1], the “MAGL kinact/KI” value is recorded as 2856 1/s per M. For the same compound, the values for the IC50 (in assay [2] (setting [3]); in assay [2] (setting [4]); at human recombinant FAAH) were 238 nM, 20 nM and above 30000 nM, respectively.
`CN(C1COC2(CCN(C(=O)O[C@H](CO)C(F)(F)F)CC2)C1)S(=O)(=O)c1ccc(F)cc1` (single isomer, unassigned) [Example 111]: the “MAGL kinact/KI” value in assay [1] is 33483 1/s per M. Moreover, the IC50 in assay [2] (setting [3]) is 28 nM; in assay [2] (setting [4]) it was 2 nM; at human recombinant FAAH, above 30000 nM.
Turning to `CC(C)Oc1ccc(S(=O)(=O)N2CCOC3(CCN(C(=O)O[C@H](CO)C(F)(F)F)CC3)C2)cc1` [Example 78], the “MAGL kinact/KI” value in assay [1] is given as 16865 1/s per M. The IC50 in assay [2] (setting [3]) came to 6 nM; in assay [2] (setting [4]), 1 nM; on human recombinant FAAH it was 2580 nM.
For `CN([C@H]1COC2(CCN(C(=O)O[C@H](CO)C(F)(F)F)CC2)C1)S(=O)(=O)C1CC1` [Example 93, (2R)-1,1,1-Trifluoro-3-hydroxypropan-2-yl (3R)-3-[(cyclopropylsulfonyl)(methyl)amino]-1-oxa-8-azaspiro[4.5]decane-8-carboxylate] the same measures were 3282 1/s per M, 318 nM, 29 nM and above 30000 nM.
In the case of `O=C(O[C@H](CO)C(F)(F)F)N1CCC2(CC1)CCN(S(=O)(=O)c1cccnc1)C2` [Example 135], the “MAGL kinact/KI” value in assay [1] is 4723 1/s per M. The IC50 in assay [2] (setting [3]) was 168 nM; in assay [2] (setting [4]), 13 nM; at human recombinant FAAH, above 30000 nM.
In the case of `CN(C1COC2(CCN(C(=O)O[C@H](CO)C(F)(F)F)CC2)C1)S(=O)(=O)c1cncnc1` (mixture of isomers) [Example 115], the “MAGL kinact/KI” value in assay [1] was 2917 1/s per M. The 50% inhibitory concentration (IC50) is 341 nM in assay [2] (setting [3]), 27 nM in assay [2] (setting [4]) and above 30000 nM on human recombinant FAAH.
Consider `C#Cc1ccc(-n2ccc([C@H]3[C@@H]4CN(C(=O)O[C@H](CO)C(F)(F)F)C[C@@H]43)n2)cc1` [Example 81], for which, in assay [1], the “MAGL kinact/KI” value is reported as 45138 1/s per M. The IC50 in assay [2] (setting [3]) is 8 nM; in assay [2] (setting [4]), 1 nM; at human recombinant FAAH, 7540 nM.
The corresponding values for `C#Cc1ccc(S(=O)(=O)N2CCOC3(CCN(C(=O)O[C@H](CO)C(F)(F)F)CC3)C2)cc1` [Example 68] are 16586 1/s per M, 56 nM, 6 nM and above 30000 nM.
The corresponding values for `O=C(O[C@H](CO)C(F)(F)F)N1CCC2(CC1)CCN(C(=O)c1ccccc1F)C2` [Example 98, (2R)-1,1,1-Trifluoro-3-hydroxypropan-2-yl 2-(2-fluorobenzoyl)-2,8-diazaspiro[4.5]decane-8-carboxylate] are 4933 1/s per M, 71 nM, 7 nM and above 30000 nM.
Consider `O=C(O[C@H](CO)C(F)(F)F)N1CCC2(CC1)C[C@H](NS(=O)(=O)c1ccccc1)CO2` [Example 8, (2R)-1,1,1-Trifluoro-3-hydroxypropan-2-yl (3S)-3-[(phenylsulfonyl)amino]-1-oxa-8-azaspiro[4.5]decane-8-carboxylate], for which, in assay [1], the “MAGL kinact/KI” value is on record as 6754 1/s per M. In addition, the figures for the IC50 (in assay [2] (setting [3]); in assay [2] (setting [4]); on human recombinant FAAH) were 57 nM, 5 nM and above 30000 nM, respectively.
Consider `CN(C(=O)c1cccc(F)c1)[C@H]1COC2(CCN(C(=O)O[C@H](CO)C(F)(F)F)CC2)C1` [Example 141], for which, in assay [1], the “MAGL kinact/KI” value is listed as 3519 1/s per M. The IC50 in assay [2] (setting [3]) was 77 nM; in assay [2] (setting [4]) it was 7 nM; on human recombinant FAAH it was above 30000 nM.
`O=C(O[C@H](CO)C(F)(F)F)N1CCC2(CC1)CCN(C(=O)N1CCCC1)C2` [Example 133]: the “MAGL kinact/KI” value in assay [1] was 3614 1/s per M. Besides, the IC50 came to 174 nM in assay [2] (setting [3]), 20 nM in assay [2] (setting [4]) and 4750 nM on human recombinant FAAH.
With `O=C(O[C@H](CO)C(F)(F)F)N1CCC(Oc2ncc(C(F)(F)F)cc2Cl)CC1` [Example 63], the “MAGL kinact/KI” value in assay [1] is 7347 1/s per M. In addition, the values for the IC50 (in assay [2] (setting [3]); in assay [2] (setting [4]); on human recombinant FAAH) were 7 nM, 1 nM and 3010 nM, respectively.
Turning to `CC(C)CC(=O)N(C)[C@H]1COC2(CCN(C(=O)O[C@H](CO)C(F)(F)F)CC2)C1` [Example 144], the “MAGL kinact/KI” value in assay [1] is on record as 2802 1/s per M. Further, the IC50 was 105 nM in assay [2] (setting [3]), 10 nM in assay [2] (setting [4]) and above 30000 nM on human recombinant FAAH.
Take `CN(C(=O)C1CCC1)[C@H]1COC2(CCN(C(=O)O[C@H](CO)C(F)(F)F)CC2)C1` [Example 142]: in assay [1], the “MAGL kinact/KI” value is reported as 3961 1/s per M. For the same compound, the values for the IC50 (in assay [2] (setting [3]); in assay [2] (setting [4]); at human recombinant FAAH) were 84 nM, 9 nM and above 30000 nM, respectively.
As for `O=C(O[C@H](CO)C(F)(F)F)N1CCC2(CCCN(S(=O)(=O)c3ccc(F)cc3)C2)CC1` [Example 12, (2R)-1,1,1-Trifluoro-3-hydroxypropan-2-yl 2-[(4-fluorophenyl)sulfonyl]-2,9-diazaspiro[5.5]undecane-9-carboxylate], the “MAGL kinact/KI” value in assay [1] is on record as 1801 1/s per M. In addition, the IC50 was 188 nM in assay [2] (setting [3]), 17 nM in assay [2] (setting [4]) and above 30000 nM at human recombinant FAAH.
The corresponding values for `CN(C(=O)CC1CCC1)[C@H]1COC2(CCN(C(=O)O[C@H](CO)C(F)(F)F)CC2)C1` [Example 143] are 2585 1/s per M, 96 nM, 10 nM and above 30000 nM.
For `N#Cc1cccc(C2COC3(CCN(C(=O)O[C@H](CO)C(F)(F)F)CC3)C2)c1` (mixture of isomers) [Example 147], the “MAGL kinact/KI” value in assay [1] was 5973 1/s per M. The IC50 is 60 nM in assay [2] (setting [3]), 6 nM in assay [2] (setting [4]) and above 26400 nM at human recombinant FAAH.
Take `O=C(O)C(F)(F)F.O=C(O[C@H](CO)C(F)(F)F)N1CCC(Oc2nccc3ccccc23)CC1` [Example 26, (2R)-1,1,1-Trifluoro-3-hydroxypropan-2-yl 4-(isoquinolin-1-yloxy)piperidine-1-carboxylate, trifluoroacetic acid salt]: the “MAGL kinact/KI” value in assay [1] is given as 16949 1/s per M. For the same compound, the figures for the IC50 (in assay [2] (setting [3]); in assay [2] (setting [4]); at human recombinant FAAH) were 31 nM, 2 nM and 7730 nM, respectively.
Consider `CN([C@H]1COC2(CCN(C(=O)O[C@H](CO)C(F)(F)F)CC2)C1)S(=O)(=O)c1cnn(C)c1` [Example 138], for which, in assay [1], the “MAGL kinact/KI” value is on record as 2154 1/s per M. The IC50 was found to be 185 nM in assay [2] (setting [3]), 15 nM in assay [2] (setting [4]) and 16300 nM at human recombinant FAAH.
